Source: patent publication US11753407B2, “Compounds for treating spinal muscular atrophy” (PTC Therapeutics, Inc., priority 2012, dated 2023)

Tests used:
[1] = test system: Smn protein in SMA patient fibroblast cells (GM03813); assay: Smn protein assay in cultured cells (SMN HTRF); assay type: cell-based, human; conditions: SMA patient fibroblast cells, 48 hours; for EC1.5x for Smn protein expression: 7-point concentration curve, SMN HTRF, concentration producing 1.5 times Smn protein vs DMSO vehicle control; for maximum fold (Fold) increase of Smn protein: 7-point concentration data, fold relative to vehicle control
Method in brief: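 Smn protein quantified by HTRF with anti-SMN d2/kryptate pair, 665/620 nm ratio blank-corrected, in RIPA lysates of GM03813 fibroblasts after 48 h compound exposure (7 concentrations, 3.16-fold steps, triplicates). Values: concentration producing 1.5× vehicle Smn level, and maximal fold increase.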

[2] = test system: SMN2 minigene mRNA (SMN2-A minigene) in HEK293H cells; assay: SMN2 minigene mRNA splicing RT-qPCR assay in cultured cells; assay type: cell-based, human; conditions: Homo sapiens, HEK293-H; concentration increasing full length SMN2 mRNA 1.5-fold relative to vehicle-treated cells; HEK293H cells with SMN2-A minigene, 24 hours, 7-point concentration data; read-out: EC1.5x for production of full length SMN2 mRNA
Method in brief: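 EC1.5× = concentration raising full-length SMN2 minigene mRNA 1.5-fold over vehicle, from 7-point curves in duplicate. Stably transfected HEK293H cells exposed 24 h at 37 °C; lysates assayed by multiplex RT-qPCR, minigene FL signal normalized to GAPDH via modified ΔΔCt.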

| SMILES | EC1.5x for Smn protein expression [1] | maximum fold (Fold) increase of Smn protein [1] | EC (1.5-fold increase) [2] [µM] |
| --- | --- | --- | --- |
| Cc1cn2cc(-c3cc(=O)n4cc(N5CCCNCC5)ccc4n3)ccc2n1 [Compound 116, 7-(1,4-diazepan-1-yl)-2-(2-methylimidazo[1,2-a]pyridin-6-yl)-4H-pyrido[1,2-a]pyrimidin-4-one] | * (An EC1.5× for Smn protein expression between >3 μM and ≤10 μM is indicated by one star (*)) | *** (a fold increase between >1.35 and ≤1.5 is indicated by three stars (***)) | 0.1 to 0.3 |
| Cc1nc2c(F)cc(-c3cc(=O)n4cc(N5CCN6CCC[C@H]6C5)ccc4n3)cc2o1 [Compound 803, 2-(4-fluoro-2-methyl-1,3-benzoxazol-6-yl)-7-[(8aS)-hexahydropyrrolo[1,2-a]pyrazin-2(1H)-yl]-4H-pyrido[1,2-a]pyrimidin-4-one] | **** (an EC1.5x≤0.3 μM is indicated by four stars (****)) | ***** (a fold increase >1.65 is indicated by five stars (*****)) | < 0.1 |
| Cc1nc2ccc(-c3cc(=O)n4cc(N5CCN(C)CC5)ccc4n3)cn2n1 [Compound 805, 7-(4-methylpiperazin-1-yl)-2-(2-methyl[1,2,4]triazolo[1,5-a]pyridin-6-yl)-4H-pyrido[1,2-a]pyrimidin-4-one] | *** (an EC1.5× between >0.3 μM and ≤1 μM is indicated by three stars (***)) | ***** (a fold increase >1.65 is indicated by five stars (*****)) | 0.1 to 0.3 |
| Cn1cc2cc(-c3cc(=O)n4nc(C5CCNCC5)ccc4n3)ccc2n1 [Compound 521, 2-(2-methyl-2H-indazol-5-yl)-7-(piperidin-4-yl)-4H-pyrimido[1,2-b]pyridazin-4-one] | **** (an EC1.5x≤0.3 μM is indicated by four stars (****)) | ***** (a fold increase >1.65 is indicated by five stars (*****)) | 0.1 to 0.3 |
| CCc1cc(-c2cc(=O)n3cc(N4CCN(C5CCC5)[C@@H](C)C4)ccc3n2)cn2cc(C)nc12 [Compound 652, 7-[(3S)-4-cyclobutyl-3-methylpiperazin-1-yl]-2-(8-ethyl-2-methylimidazo[1,2-a]pyridin-6-yl)-4H-pyrido[1,2-a]pyrimidin-4-one] | **** (an EC1.5x≤0.3 μM is indicated by four stars (****)) | ***** (a fold increase >1.65 is indicated by five stars (*****)) | < 0.1 |
| CCN1CCN(c2ccc3nc(-c4cc(C)c5nc(C)cn5c4)cc(=O)n3c2)CC1 [Compound 819, 2-(2,8-dimethylimidazo[1,2-a]pyridin-6-yl)-7-(4-ethylpiperazin-1-yl)-4H-pyrido[1,2-a]pyrimidin-4-one] | **** (an EC1.5x≤0.3 μM is indicated by four stars (****)) | ***** (a fold increase >1.65 is indicated by five stars (*****)) | < 0.1 |
| CCc1nc(C)cn2nc(-c3cc(=O)n4cc(C5CCNCC5)ncc4n3)cc12 [Compound 653, 2-(4-ethyl-6-methylpyrazolo[1,5-a]pyrazin-2-yl)-7-(piperidin-4-yl)-4H-pyrazino[1,2-a]pyrimidin-4-one] | **** (an EC1.5x≤0.3 μM is indicated by four stars (****)) | ***** (a fold increase >1.65 is indicated by five stars (*****)) | < 0.1 |
| CN1CCCN(c2ccc3nc(-c4ccc5c(cnn5C)c4)cc(=O)n3c2)CC1 [Compound 492, 7-(4-methyl-1,4-diazepan-1-yl)-2-(1-methyl-1H-indazol-5-yl)-4H-pyrido[1,2-a]pyrimidin-4-one] | ** (an EC1.5× between >1 μM and ≤3 μM is indicated by two stars (**)) | **** (a fold increase between >1.5 and ≤1.65 is indicated by four stars (****)) | 0.3 to 1 |
